# Reference: ChEMBL document CHEMBL3885861, “Open TG-GATES”
# Organism: Rattus norvegicus
# Assay: Open TG-GATES - Regimen: Daily Repeat
# Type: toxicity, organism-based, Sprague-Dawley
# Design: regimen Daily Repeat, gender Male, age 6 weeks
# Settings: in vivo, po, route gavage; for KIDNEY_L / KIDNEY_R / KIDNEY_TOTAL: tissue Kidney; for ALP / ALT / AST / BUN / CRE / Ca / Cl / DBIL / GLC / IP / K / LDH / Na / RALB / TBIL / TC / TG / TP / gamma-GTP / PL: tissue Plasma
# [1] = 200 mg/kg, 72 h, tissue Blood, dose level Middle, time 3 day
# [2] = 200 mg/kg, 72 h, dose level Middle, time 3 day
# [3] = 200 mg/kg, […], dose level Middle, time 7 day
# [4] = 200 mg/kg, […], dose level Middle, time 14 day
# [5] = 200 mg/kg, […], dose level Middle, time 28 day
# [6] = 200 mg/kg, […], tissue Blood, dose level Middle, time 7 day
# [7] = 200 mg/kg, […], tissue Blood, dose level Middle, time 14 day
# [8] = 200 mg/kg, […], tissue Blood, dose level Middle, time 28 day
# [9] = 600 mg/kg, 72 h, dose level High, time 3 day
# [10] = 600 mg/kg, 72 h, tissue Blood, dose level High, time 3 day
# [11] = 600 mg/kg, […], dose level High, time 7 day
# [12] = 600 mg/kg, […], dose level High, time 14 day
# [13] = 600 mg/kg, […], dose level High, time 28 day
# [14] = 600 mg/kg, […], tissue Blood, dose level High, time 7 day
# [15] = 600 mg/kg, […], tissue Blood, dose level High, time 14 day
# [16] = 600 mg/kg, […], tissue Blood, dose level High, time 28 day
smiles,measurement,setting,value
CC(=O)Nc1nnc(S(N)(=O)=O)s1 [ACETAZOLAMIDE],APTT,[1],19.2 s
same,Bas,[1],0%
same,Eos,[1],1.2%
same,Fbg,[1],313.4 mg/dL
same,Ht,[1],39.9%
same,MCH,[1],21.3 pg
same,MCHC,[1],34.1%
same,MCV,[1],62.6 fL
same,Mono,[1],3%
same,Neu,[1],18.6%
same,PT,[1],16.5 s
same,RBC,[1],637.6 x10_4/ul
same,Ret,[1],5.3%
same,KIDNEY_L,[2],1.1 g
same,KIDNEY_R,[2],1 g
same,KIDNEY_TOTAL,[2],2.1 g
same,ALP,[2],1836.6 IU/L
same,ALT,[2],45.2 IU/L
same,AST,[2],64.2 IU/L
same,BUN,[2],20 mg/dL
same,CRE,[2],0.2 mg/dL
same,Ca,[2],10.8 mg/dL
same,Cl,[2],109.6 meq/L
same,DBIL,[2],0 mg/dL
same,GLC,[2],175.2 mg/dL
same,IP,[2],7.5 mg/dL
same,K,[2],4.1 meq/L
same,LDH,[2],187.8 IU/L
same,Na,[2],142.4 meq/L
same,RALB,[2],3 g/dL
same,TBIL,[2],0.008 mg/dL
same,TC,[2],83.2 mg/dL
same,TG,[2],81.6 mg/dL
same,TP,[2],5.3 g/dL
same,gamma-GTP,[2],1.4 IU/L
same,TERMINAL_BW,[3],243.9 g
same,TERMINAL_BW,[4],281.3 g
same,TERMINAL_BW,[5],340.5 g
same,APTT,[6],20 s
same,Bas,[6],0%
same,Eos,[6],1%
same,Fbg,[6],338 mg/dL
same,Ht,[6],39%
same,MCH,[6],21.1 pg
same,MCHC,[6],35.4%
same,MCV,[6],59.7 fL
same,Mono,[6],2.6%
same,RBC,[6],653.4 x10_4/ul
same,Ret,[6],5.9%
same,APTT,[7],22 s
same,Bas,[7],0%
same,Eos,[7],0.6%
same,Fbg,[7],302.4 mg/dL
same,Ht,[7],40.2%
same,MCH,[7],20.4 pg
same,MCHC,[7],35.2%
same,MCV,[7],57.9 fL
same,Mono,[7],1.4%
same,Neu,[7],17.6%
same,RBC,[7],696.2 x10_4/ul
same,Ret,[7],4.5%
same,APTT,[8],24.7 s
same,Bas,[8],0%
same,Eos,[8],0.8%
same,Fbg,[8],312.2 mg/dL
same,Ht,[8],42%
same,MCH,[8],19.3 pg
same,MCHC,[8],34.7%
same,Mono,[8],1.8%
same,PT,[8],16.5 s
same,RBC,[8],757.6 x10_4/ul
same,Ret,[8],3%
same,KIDNEY_L,[3],1.1 g
same,KIDNEY_R,[3],1.1 g
same,KIDNEY_TOTAL,[3],2.2 g
same,KIDNEY_L,[4],1.2 g
same,KIDNEY_R,[4],1.2 g
same,KIDNEY_TOTAL,[4],2.5 g
same,KIDNEY_L,[5],1.4 g
same,KIDNEY_R,[5],1.4 g
same,KIDNEY_TOTAL,[5],2.8 g
same,ALP,[3],1704.2 IU/L
same,ALT,[3],44 IU/L
same,AST,[3],67.4 IU/L
same,BUN,[3],20.4 mg/dL
same,CRE,[3],0.2 mg/dL
same,Ca,[3],10.7 mg/dL
same,Cl,[3],110.8 meq/L
same,DBIL,[3],0 mg/dL
same,GLC,[3],186.8 mg/dL
same,IP,[3],6.7 mg/dL
same,K,[3],4.2 meq/L
same,LDH,[3],179 IU/L
same,Na,[3],143.6 meq/L
same,PL,[3],140.2 mg/dL
same,RALB,[3],2.9 g/dL
same,TBIL,[3],0 mg/dL
same,TC,[3],69.8 mg/dL
same,TG,[3],133.8 mg/dL
same,TP,[3],5.1 g/dL
same,gamma-GTP,[3],1.4 IU/L
same,ALP,[4],1326.4 IU/L
same,ALT,[4],42 IU/L
same,AST,[4],65.6 IU/L
same,BUN,[4],19 mg/dL
same,CRE,[4],0.2 mg/dL
same,Ca,[4],10.6 mg/dL
same,Cl,[4],107.4 meq/L
same,DBIL,[4],0 mg/dL
same,GLC,[4],184.4 mg/dL
same,IP,[4],6.7 mg/dL
same,K,[4],3.7 meq/L
same,LDH,[4],139 IU/L
same,Na,[4],143.8 meq/L
same,PL,[4],142.4 mg/dL
same,RALB,[4],3.1 g/dL
same,TBIL,[4],0.002 mg/dL
same,TC,[4],69.8 mg/dL
same,TP,[4],5.6 g/dL
same,gamma-GTP,[4],2 IU/L
same,ALP,[5],1449.8 IU/L
same,ALT,[5],44.2 IU/L
same,AST,[5],69 IU/L
same,BUN,[5],17.2 mg/dL
same,CRE,[5],0.2 mg/dL
same,Cl,[5],108.2 meq/L
same,DBIL,[5],0 mg/dL
same,GLC,[5],179.6 mg/dL
same,IP,[5],5.4 mg/dL
same,K,[5],3.8 meq/L
same,LDH,[5],136.8 IU/L
same,Na,[5],141.8 meq/L
same,PL,[5],159 mg/dL
same,RALB,[5],3.2 g/dL
same,TBIL,[5],0.002 mg/dL
same,TC,[5],81.4 mg/dL
same,TG,[5],136.4 mg/dL
same,TP,[5],6 g/dL
same,gamma-GTP,[5],2.4 IU/L
same,TERMINAL_BW,[9],195.4 g
same,APTT,[10],18.7 s
same,Bas,[10],0%
same,Eos,[10],1%
same,Fbg,[10],285 mg/dL
same,Ht,[10],41.9%
same,Lym,[10],86%
same,MCH,[10],20.5 pg
same,MCHC,[10],34.2%
same,MCV,[10],59.9 fL
same,Mono,[10],2.4%
same,Neu,[10],9.6%
same,PT,[10],17.7 s
same,RBC,[10],699.4 x10_4/ul
same,Ret,[10],3.9%
same,KIDNEY_L,[9],0.9 g
same,KIDNEY_R,[9],0.9 g
same,KIDNEY_TOTAL,[9],1.8 g
same,ALP,[9],1356 IU/L
same,ALT,[9],43 IU/L
same,AST,[9],57.8 IU/L
same,BUN,[9],22.6 mg/dL
same,CRE,[9],0.2 mg/dL
same,Ca,[9],10.8 mg/dL
same,Cl,[9],116 meq/L
same,DBIL,[9],0 mg/dL
same,GLC,[9],186.6 mg/dL
same,IP,[9],7.9 mg/dL
same,K,[9],4.1 meq/L
same,LDH,[9],211.2 IU/L
same,Na,[9],142.6 meq/L
same,PL,[9],151.8 mg/dL
same,RALB,[9],3 g/dL
same,TBIL,[9],0.006 mg/dL
same,TC,[9],84 mg/dL
same,TG,[9],90.6 mg/dL
same,TP,[9],5.4 g/dL
same,gamma-GTP,[9],1 IU/L
same,TERMINAL_BW,[11],226.8 g
same,TERMINAL_BW,[12],263.9 g
same,TERMINAL_BW,[13],330.6 g
same,APTT,[14],19.2 s
same,Bas,[14],0%
same,Eos,[14],1%
same,Fbg,[14],314.4 mg/dL
same,Ht,[14],39.9%
same,MCH,[14],21 pg
same,MCHC,[14],34.5%
same,MCV,[14],60.9 fL
same,Mono,[14],2.4%
same,RBC,[14],656.2 x10_4/ul
same,Ret,[14],6%
same,APTT,[15],21.5 s
same,Bas,[15],0%
same,Eos,[15],0.8%
same,Fbg,[15],315.6 mg/dL
same,MCH,[15],20.4 pg
same,MCHC,[15],35.3%
same,MCV,[15],57.8 fL
same,Mono,[15],2.4%
same,Neu,[15],23.6%
same,PT,[15],16.7 s
same,RBC,[15],708 x10_4/ul
same,Ret,[15],5.3%
same,APTT,[16],23 s
same,Bas,[16],0%
same,Eos,[16],1%
same,Fbg,[16],306.4 mg/dL
same,Ht,[16],42.1%
same,MCH,[16],19.4 pg
same,MCHC,[16],34%
same,MCV,[16],57 fL
same,Mono,[16],2.8%
same,PT,[16],16.9 s
same,RBC,[16],739.2 x10_4/ul
same,Ret,[16],3.4%
same,KIDNEY_L,[11],1.1 g
same,KIDNEY_R,[11],1.1 g
same,KIDNEY_TOTAL,[11],2.1 g
same,KIDNEY_L,[12],1.2 g
same,KIDNEY_R,[12],1.3 g
same,KIDNEY_TOTAL,[12],2.5 g
same,KIDNEY_L,[13],1.4 g
same,KIDNEY_R,[13],1.4 g
same,KIDNEY_TOTAL,[13],2.8 g
same,ALP,[11],1613 IU/L
same,ALT,[11],46 IU/L
same,AST,[11],71.6 IU/L
same,BUN,[11],20 mg/dL
same,CRE,[11],0.2 mg/dL
same,Ca,[11],10.9 mg/dL
same,Cl,[11],114.2 meq/L
same,DBIL,[11],0 mg/dL
same,GLC,[11],179.8 mg/dL
same,IP,[11],7.2 mg/dL
same,K,[11],4.2 meq/L
same,LDH,[11],162.8 IU/L
same,Na,[11],144.6 meq/L
same,PL,[11],167.4 mg/dL
same,RALB,[11],3 g/dL
same,TBIL,[11],0 mg/dL
same,TC,[11],84.2 mg/dL
same,TG,[11],124 mg/dL
same,TP,[11],5.4 g/dL
same,gamma-GTP,[11],1.2 IU/L
same,ALP,[12],1257.6 IU/L
same,ALT,[12],40.4 IU/L
same,AST,[12],61.4 IU/L
same,BUN,[12],18.8 mg/dL
same,CRE,[12],0.2 mg/dL
same,Ca,[12],10.5 mg/dL
same,Cl,[12],110.6 meq/L
same,DBIL,[12],0 mg/dL
same,GLC,[12],181.8 mg/dL
same,IP,[12],7 mg/dL
same,K,[12],3.7 meq/L
same,LDH,[12],141.6 IU/L
same,Na,[12],143.4 meq/L
same,PL,[12],152.2 mg/dL
same,RALB,[12],3 g/dL
same,TBIL,[12],0.004 mg/dL
same,TC,[12],76.2 mg/dL
same,TG,[12],130.4 mg/dL
same,TP,[12],5.5 g/dL
same,gamma-GTP,[12],1.8 IU/L
same,ALP,[13],1120.2 IU/L
same,AST,[13],66.4 IU/L
same,BUN,[13],18.4 mg/dL
same,CRE,[13],0.2 mg/dL
same,Ca,[13],10.2 mg/dL
same,Cl,[13],111.2 meq/L
same,DBIL,[13],0 mg/dL
same,GLC,[13],178 mg/dL
same,IP,[13],5.6 mg/dL
same,K,[13],3.8 meq/L
same,LDH,[13],149 IU/L
same,Na,[13],142.6 meq/L
same,PL,[13],136.2 mg/dL
same,RALB,[13],3.2 g/dL
same,TBIL,[13],0.01 mg/dL
same,TC,[13],71.6 mg/dL
same,TG,[13],115.4 mg/dL
same,TP,[13],5.6 g/dL
same,gamma-GTP,[13],2.2 IU/L
